Source: patent US7846473B2, “Irinotecan preparation” (Terumo Kabushiki Kaisha, priority 2004, dated 2010)

Key:
Assay type in all cases: in vivo
Retentivity in blood = details: female, plasma, iv; BALB/c mouse, 10 mg/kg i.v. tail, elapsed time 1 hr; read-out: Concentration in plasma of irinotecan hydrochloride
[1] = test system: neutrophils and lymphocytes; experiment: Hemotoxicity in rat; details: i.v. tail vein
Protocol: Collecting blood of 0.4 mL from a cervical vein of the rat before and after injection; and after 2, 4, 6, 13, 20, and 27 days (for 4 weeks); the number of neutrophils and lymphocytes was measured with automated hematology analyzer (Sysmex XT-2000i, Sysmex). FIGS. 12 and 13 show the results.

[2] = test system: Human colon cancer cells (HT-29); experiment: Antitumor effect, human colon cancer HT-29 transplanted in mouse; details: HT-29 in BALB/c nude mouse; for Inhibition rate (%) / Tumor weight (g, mean ± S.D.): 21 days after injection
Protocol: Human colon cancer cells (HT-29) with 2 to 3 mm square were transplanted subcutaneously in an inguinal region of a mouse (BALB/c nude, male, 6 weeks old, CLEA Japan, Inc.) with a needle for transplantation. […] Mice without injection of either agent were employed as a control group.
The estimated volume of tumors and a body weight of the mouse were calculated at 4, 8, 12, 17, 21 days after a first injection. The tumors were also removed 21 days after the injection and the weight of the tumors were measured, to thereby calculate a tumor proliferation inhibition rate, I.R. (%) by the formula as shown in Test Example 6.

[3] = Pharmacokinetics due to single administration in Meth A tumor-bearing mouse (plasma and tumor); details: Meth A-bearing BALB/c mouse, 10 mg/kg i.v.

## CCc1c2c(nc3ccc(OC(=O)N4CCC(N5CCCCC5)CC4)cc13)-c1cc3c(c(=O)n1C2)COC(=O)[C@]3(O)CC [(+)-(4S)-4,11-diethyl-4-hydroxy-9-[(4-piperidino-piperidino)carbonyloxy]-1H-pyrano[3′,4′:6,7]indolizino[1,2-b]quinolin-3,14(4H,12H)-dione]
Retentivity in blood
  concentration at 1 h: 390 ng/mL
[1]
  number of lymphocytes: on a decline immediately after injection albeit only slightly
[2]
  tumor proliferation compared with the control group: strong tumor proliferation inhibitory effect
[2]; 25 mg/kg i.v. days 1, 5, 9
  Inhibition rate (%): 38.2%
  Tumor weight (g, mean ± S.D.): 0.36 ± 0.41 g
[2]; 50 mg/kg i.v. days 1, 5, 9
  Inhibition rate (%): 24.9%
  Tumor weight (g, mean ± S.D.): 0.44 ± 0.36 g
[2]; 100 mg/kg i.v. days 1, 5, 9
  Inhibition rate (%): 44.0%
  Tumor weight (g, mean ± S.D.): 0.33 ± 0.32 g
[2]; 25-100 mg/kg i.v. days 1, 5, 9
  effect on body weight of the mouse: didn't affect the body weight of the mouse
[3]
  time of maximum concentration of irinotecan hydrochloride in the tumor tissue: 0.5 h
